Measured values as given in patent publication US11787780B2 (CORCEPT THERAPEUTICS INCORPORATED, priority 2020, dated 2023).

These compounds were tested on induction of TAT by dexamethasone in HepG2 cells (assay: Hep G2 TAT assay (inhibition of dexamethasone-induced TAT)). Conditions: challenge of 100 nM dexamethasone, IC50 converted to Ki by Cheng and Prusoff equation.
Format: cell-based, human
Method: Glucocorticoid mediated activation of TAT occurs by transactivation of glucocorticoid response elements in the TAT promoter by glucocorticoid receptor-agonist complex. The following protocol describes an assay for measuring induction of TAT by dexamethasone in HepG2 cells (a human liver hepatocellular carcinoma cell line; ECACC, UK).
TAT activity was measured as outlined in the literature by A. Ah et al., J. Med. Chem., 2004, 47, 2441-2452.
HepG2 cells were cultured using MEME media supplemented with 10% (v/v) foetal bovine serum; 2 mM L-glutamine and 1% (v/v) NEAA at 37° C., 5%/95% (v/v) CO2/air. The HepG2 cells were counted and adjusted to yield a density of 0.125×10^6 cells/ml in RPMI 1640 without phenol red, 10% (v/v) charcoal stripped FBS, 2 mM L-glutamine and seeded at 25,000 cells/well in 200 μl into 96 well, sterile, tissue culture micro titre plates, and incubated at 37° C., 5% CO2 for 24 hours
Growth media was removed and replaced with assay media {RPMI 1640 without phenol red, 2 mM L-glutamine+10 μM forskolin}. Test compounds were screened against a challenge of 100 nM dexamethasone. Compounds were serially half log diluted in 100% (v/v) dimethylsulphoxide from a 10 mM stock.
Test compounds were pre-incubated with cells in micro-titre plates for 30 minutes at 37° C., 5/95 (v/v) CO2/air, before the addition of 100 nM dexamethasone and then subsequently for 20 hours to allow optimal TAT induction.
HepG2 cells were then lysed with 30 μl of cell lysis buffer containing a protease inhibitor cocktail for 15 minutes at 4° C. […] After 2 hours incubation at 37° C. the reaction was terminated by the addition of 15 μl of 10M aqueous potassium hydroxide solution, and the plates incubated for a further 30 minutes at 37° C. The TAT activity product was measured by absorbance at λ 340 nm.
[compound] and fitting the data to a 4 parameter logistic equation. IC50 values were converted to Ki (equilibrium dissociation constant) using the Cheng and Prusoff equation, assuming the antagonists were competitive inhibitors with respect to dexamethasone.

Question: For Cc1cc2c(cnn2-c2ccc(F)cc2)cc1C1(Cc2nccs2)CCN(S(C)(=O)=O)C1 (stereo not shown) [Example 187], which Ki is on record?
Answer: The Ki was 199 nM.

Question: For Cc1cc2c(cnn2-c2ccc(F)cc2)cc1C1(Cc2nccs2)CCN(S(=O)(=O)c2cnn(C)c2)C1 (stereo not shown) [Example 188], which Ki is on record?
Answer: The Ki was 173 nM.

Question: Which Ki does the source give for Cc1cc2c(cnn2-c2ccc(F)cc2)cc1C1(Cc2ccccc2)CCN(C(=O)c2ccnnc2)C1 (stereo not shown) [Example 195, (3-benzyl-3-(1-(4-fluorophenyl)-6-methyl-1H-indazol-5-yl)pyrrolidin-1-yl)(pyridazin-4-yl)methanone] here?
Answer: The Ki was 70 nM.

Question: With Cc1cc2c(cnn2-c2ccc(F)cc2)cc1C1(Cc2ccccc2)CCN(C(=O)c2cncnc2)C1 (stereo not shown) [Example 196, (3-benzyl-3-(1-(4-fluorophenyl)-6-methyl-1H-indazol-5-yl)pyrrolidin-1-yl)(pyrimidin-5-yl)methanone] as the compound, how does the Ki read?
Answer: The Ki was 79 nM.

Question: Cc1cc(CC(=O)N2CCC(Cc3ccccc3)(c3cc4cnn(-c5ccc(F)cc5)c4cc3C)C2)on1 (stereo not shown) [Example 197, 1-(3-benzyl-3-(1-(4-fluorophenyl)-6-methyl-1H-indazol-5-yl)pyrrolidin-1-yl)-2-(3-methylisoxazol-5-yl)ethan-1-one] was tested. Which Ki did it give?
Answer: Its Ki is 65 nM.

Question: For Cc1cc2c(cnn2-c2ccc(F)cc2)cc1C1(Cc2ccccc2)CCN(C(=O)Cc2noc3ccccc23)C1 (stereo not shown) [Example 198, 2-(benzo[d]isoxazol-3-yl)-1-(3-benzyl-3-(1-(4-fluorophenyl)-6-methyl-1H-indazol-5-yl)pyrrolidin-1-yl)ethan-1-one], which Ki is on record?
Answer: Its Ki is 30 nM.

Question: For COc1cc(OCCCC(=O)N2CCC(Cc3ccccc3)(c3cc4cnn(-c5ccc(F)cc5)c4cc3C)C2)ccc1CO (stereo not shown) [Example 199, 1-(3-benzyl-3-(1-(4-fluorophenyl)-6-methyl-1H-indazol-5-yl)pyrrolidin-1-yl)-4-(4-(hydroxymethyl)-3-methoxyphenoxy)butan-1-one], which Ki is on record?
Answer: The Ki was 33 nM.

Question: How did the Ki turn out when Cc1cc2c(cnn2-c2ccc(F)cc2)cc1C1(Cc2ccccc2)CCN(C(=O)c2cc(CO)ccn2)C1 (stereo not shown) [Example 200, (3-benzyl-3-(1-(4-fluorophenyl)-6-methyl-1H-indazol-5-yl)pyrrolidin-1-yl)(4-(hydroxymethyl)pyridin-2-yl)methanone] was run?
Answer: The Ki was 59 nM.

Question: For COc1ccccc1-c1noc(CCC(=O)N2CCC(Cc3ccccc3)(c3cc4cnn(-c5ccc(F)cc5)c4cc3C)C2)n1 (stereo not shown) [Example 201, 1-(3-benzyl-3-(1-(4-fluorophenyl)-6-methyl-1H-indazol-5-yl)pyrrolidin-1-yl)-3-(3-(2-methoxyphenyl)-1,2,4-oxadiazol-5-yl)propan-1-one], which Ki is on record?
Answer: The Ki was 48 nM.

Question: Which Ki does the source give for Cc1cc2c(cnn2-c2ccc(F)cc2)cc1C1(Cc2ccccc2)CCN(C(=O)Cc2csc3ccccc23)C1 (stereo not shown) [Example 202, 2-(benzo[b]thiophen-3-yl)-1-(3-benzyl-3-(1-(4-fluorophenyl)-6-methyl-1H-indazol-5-yl)pyrrolidin-1-yl)ethan-1-one] here?
Answer: The Ki was 67 nM.

Question: With Cc1cc2c(cnn2-c2ccc(F)cc2)cc1C1(Cc2ccccc2)CCN(C(=O)c2ccsc2)C1 (stereo not shown) [Example 203, (3-benzyl-3-(1-(4-fluorophenyl)-6-methyl-1H-indazol-5-yl)pyrrolidin-1-yl)(thiophen-3-yl)methanone] as the compound, how does the Ki read?
Answer: Its Ki is 21 nM.

Question: Which Ki does the source give for Cc1cc2c(cnn2-c2ccc(F)cc2)cc1C1(Cc2ccccc2)CCN(S(=O)(=O)c2cn(C)cn2)C1 (stereo not shown) [Example 210, 5-(3-benzyl-1-((1-methyl-1H-imidazol-4-yl)sulfonyl)pyrrolidin-3-yl)-1-(4-fluorophenyl)-6-methyl-1H-indazole] here?
Answer: Its Ki is 41 nM.

Question: With Cc1cc2c(cnn2-c2ccc(F)cc2)cc1C1(CC#Cc2ccccc2)CCN(S(=O)(=O)c2cnn(C)c2)C1 (stereo not shown) [Example 211, 1-(4-fluorophenyl)-6-methyl-5-(1-((1-methyl-1H-pyrazol-4-yl)sulfonyl)-3-(3-phenylprop-2-yn-1-yl)pyrrolidin-3-yl)-1H-indazole] as the compound, how does the Ki read?
Answer: The Ki was 47 nM.

Question: For COc1cc2c(cnn2-c2ccc(F)cc2)cc1C1(Cc2ccc(F)cc2)CCN(S(=O)(=O)c2cn(C)cn2)C1 (stereo not shown) [Example 216, 5-(3-(4-fluorobenzyl)-1-((1-methyl-1H-imidazol-4-yl)sulfonyl)pyrrolidin-3-yl)-1-(4-fluorophenyl)-6-methoxy-1H-indazole], which Ki is on record?
Answer: Its Ki is 53 nM.

Question: How did the Ki turn out when COc1cc2c(cnn2-c2ccc(F)cc2)cc1C1(Cc2ccc(F)cc2)CCN(S(=O)(=O)C2CC2)C1 (stereo not shown) [Example 220, 5-(1-(cyclopropylsulfonyl)-3-(4-fluorobenzyl)pyrrolidin-3-yl)-1-(4-fluorophenyl)-6-methoxy-1H-indazole] was run?
Answer: The Ki was 24 nM.

Question: With CCCn1cc(S(=O)(=O)N2CCC(Cc3ccccc3)(c3cc4cnn(-c5ccc(F)cc5)c4cc3Cl)C2)cn1 (stereo not shown) [Example 224, 5-(3-benzyl-1-((1-propyl-1H-pyrazol-4-yl)sulfonyl)pyrrolidin-3-yl)-6-chloro-1-(4-fluorophenyl)-1H-indazole] as the compound, how does the Ki read?
Answer: Its Ki is 21 nM.

Question: With Cc1ncc(CC2(c3cc4cnn(-c5ccc(F)cc5)c4cc3C)CCN(S(=O)(=O)c3cnn(C)c3)C2)s1 (stereo not shown) [Example 227, 5-((3-(1-(4-fluorophenyl)-6-methyl-1H-indazol-5-yl)-1-((1-methyl-1H-pyrazol-4-yl)sulfonyl)pyrrolidin-3-yl)methyl)-2-methylthiazole] as the compound, how does the Ki read?
Answer: The Ki was 350 nM.

Question: With O=C1CC(Cc2ccccc2)(c2cc3cnn(-c4ccc(F)cc4)c3cc2Cl)C(=O)N1Cc1ccccc1 (stereo not shown) [Example 228, 1,3-dibenzyl-3-(6-chloro-1-(4-fluorophenyl)-1H-indazol-5-yl)pyrrolidine-2,5-dione] as the compound, how does the Ki read?
Answer: Its Ki is 28 nM.

Question: How did the Ki turn out when Cc1cc2c(cnn2-c2ccc(F)cc2)cc1C1(Cc2ccccc2)CCN(C(=O)c2csc(C(F)(F)F)n2)C1 (stereo not shown) [Example 229, (3-benzyl-3-(1-(4-fluorophenyl)-6-methyl-1H-indazol-5-yl)pyrrolidin-1-yl)(2-(trifluoromethyl)thiazol-4-yl)methanone] was run?
Answer: The Ki was 210 nM.

Question: How did the Ki turn out when COc1cc2c(cnn2-c2ccc(F)cc2)cc1C1(Cc2ccccc2)CCN(C(=O)c2cscn2)C1 (stereo not shown) [Example 230, (3-benzyl-3-(1-(4-fluorophenyl)-6-methoxy-1H-indazol-5-yl)pyrrolidin-1-yl)(thiazol-4-yl)methanone] was run?
Answer: Its Ki is 74 nM.

Question: Cc1ncc(CC2(c3cc4cnn(-c5ccc(F)cc5)c4cc3C)CCN(C(=O)c3ccccc3)C2)s1 (stereo not shown) [Example 234, (3-(1-(4-fluorophenyl)-6-methyl-1H-indazol-5-yl)-3-((2-methylthiazol-5-yl)methyl)pyrrolidin-1-yl)(phenyl)methanone] was tested. Which Ki did it give?
Answer: Its Ki is 150 nM.

Question: Which Ki does the source give for COc1ccc(-n2ncc3cc(C4(Cc5ccccc5)CCN(S(=O)(=O)c5cnn(C)n5)C4)c(C)cc32)cn1 (stereo not shown) [Example 236, 5-(3-benzyl-1-((2-methyl-2H-1,2,3-triazol-4-yl)sulfonyl)pyrrolidin-3-yl)-1-(6-methoxypyridin-3-yl)-6-methyl-1H-indazole] here?
Answer: The Ki was 81 nM.

Question: Which Ki does the source give for Cc1cc2c(cnn2-c2cccnc2)cc1C1(Cc2ccccc2)CCN(S(=O)(=O)c2cnn(C)n2)C1 (stereo not shown) [Example 238, 5-(3-benzyl-1-((2-methyl-2H-1,2,3-triazol-4-yl)sulfonyl)pyrrolidin-3-yl)-6-methyl-1-(pyridin-3-yl)-1H-indazole] here?
Answer: Its Ki is 64 nM.

Question: For Cc1cc(-n2ncc3cc(C4(Cc5ccccc5)CCN(S(=O)(=O)c5cnn(C)n5)C4)c(C)cc32)ccn1 (stereo not shown) [Example 240, 5-(3-benzyl-1-((2-methyl-2H-1,2,3-triazol-4-yl)sulfonyl)pyrrolidin-3-yl)-6-methyl-1-(2-methylpyridin-4-yl)-1H-indazole], which Ki is on record?
Answer: The Ki was 73 nM.

Question: How did the Ki turn out when Cc1cc2c(cnn2-c2cccc(C#N)c2)cc1C1(Cc2ccccc2)CCN(S(=O)(=O)c2cnn(C)n2)C1 (stereo not shown) [Example 241, 3-(5-(3-benzyl-1-((2-methyl-2H-1,2,3-triazol-4-yl)sulfonyl)pyrrolidin-3-yl)-6-methyl-1H-indazol-1-yl)benzonitrile] was run?
Answer: Its Ki is 44 nM.

Question: For Cc1cc2c(cnn2-c2ccn(C)c(=O)c2)cc1C1(Cc2ccccc2)CCN(S(=O)(=O)c2cnn(C)n2)C1 (stereo not shown) [Example 244, 4-(5-(3-benzyl-1-((2-methyl-2H-1,2,3-triazol-4-yl)sulfonyl)pyrrolidin-3-yl)-6-methyl-1H-indazol-1-yl)-1-methylpyridin-2(1H)-one], which Ki is on record?
Answer: The Ki was 840 nM.

Question: Cc1cc2c(cnn2-c2cc(C#N)c(=O)n(C)c2)cc1C1(Cc2ccccc2)CCN(S(=O)(=O)c2cnn(C)n2)C1 (stereo not shown) [Example 245, 5-(5-(3-benzyl-1-((2-methyl-2H-1,2,3-triazol-4-yl)sulfonyl)pyrrolidin-3-yl)-6-methyl-1H-indazol-1-yl)-1-methyl-2-oxo-1,2-dihydropyridine-3-carbonitrile] was tested. Which Ki did it give?
Answer: The Ki was 190 nM.

Question: How did the Ki turn out when CCn1cc(-n2ncc3cc(C4(Cc5ccccc5)CCN(S(=O)(=O)c5cnn(C)n5)C4)c(C)cc32)ccc1=O (stereo not shown) [Example 268, 5-(5-(3-benzyl-1-((2-methyl-2H-1,2,3-triazol-4-yl)sulfonyl)pyrrolidin-3-yl)-6-methyl-1H-indazol-1-yl)-1-ethylpyridin-2(1H)-one] was run?
Answer: Its Ki is 160 nM.
